“And” between values parts separate entries of the source, which are not always exact repeats. Identical values can stand only once.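 1) Cells in 96-well plates. 2) Compound, 48 h, 5 concentrations. 3) Linear interpolation between surrounding doses. 4) Unreached endpoint = highest concentration. GI50 is the concentration that inhibits growth by half. TGI is the concentration that stops growth completely.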
Legend:
Assay in all cases: NCI-60 cell line screen, 48 h
HCC-2998 colon = tested on: HCC-2998 colon
CAKI-1 renal = tested on: CAKI-1 renal
HL-60(TB) leukemia = tested on: HL-60(TB) leukemia
A498 renal = tested on: A498 renal
SNB-75 CNS = tested on: SNB-75 CNS
MALME-3M melanoma = tested on: MALME-3M melanoma
UACC-62 melanoma = tested on: UACC-62 melanoma
KM20L2 colon = tested on: KM20L2 colon
SNB-78 CNS = tested on: SNB-78 CNS
DMS 114 small cell lung = tested on: DMS 114 small cell lung
M19-MEL melanoma = tested on: M19-MEL melanoma

Row | Structure (SMILES) | GI50 (HCC-2998 colon) | TGI (HCC-2998 colon) | GI50 (CAKI-1 renal) | TGI (CAKI-1 renal) | GI50 (HL-60(TB) leukemia) | TGI (HL-60(TB) leukemia) | GI50 (A498 renal) | TGI (A498 renal) | GI50 (SNB-75 CNS) | TGI (SNB-75 CNS) | GI50 (MALME-3M melanoma) | TGI (MALME-3M melanoma) | GI50 (UACC-62 melanoma) | TGI (UACC-62 melanoma) | TGI (KM20L2 colon) | TGI (SNB-78 CNS) [µM] | TGI (DMS 114 small cell lung) [µM] | TGI (M19-MEL melanoma) [µM] | GI50 (KM20L2 colon) [µM]
1 | CN(Cc1cnc2nc(N)nc(N)c2n1)c1c(Cl)cc(C(=O)NC(CCC(=O)O)C(=O)O)cc1Cl (stereo not given) | < 0.0148 µM | > 100 µM | < 0.01 µM | 0.0242 µM | < 0.01 µM | > 100 µM | 0.0994 µM | > 100 µM | 0.173 µM | > 100 µM | 81.4 µM | > 100 µM | < 0.0106 µM | > 100 µM | – | – | – | – | –
2 | O=C1C(=O)N(c2cc(Cl)ccc2Cl)C(=O)C(=O)C1c1nc2ccccc2s1 | – | – | – | > 100 µM | – | > 100 µM | – | > 100 µM | – | > 100 µM | – | > 100 µM | – | > 100 µM | > 100 µM | > 100 | > 100 | > 100 | –
3 | CCS(=O)(=O)c1cccc(-c2cc(C(=O)NC3CCN(C)CC3)c(C)c3[nH]c4ncc(C)cc4c23)c1 | 0.177 µM and 0.703 µM | 2.14 µM and 4.18 µM | 1.35 µM and 6.41 µM | > 6.29 µM and 36.4 µM | 0.179 µM and 0.442 µM | 4.22 µM and 3.97 µM | 0.453 µM and 0.124 µM | 1.65 µM and 0.79 µM | 0.101 µM and 0.0804 µM | 0.459 µM and 0.264 µM | 0.843 µM and 0.571 µM | 4.13 µM and 3.22 µM | 0.452 µM and 0.372 µM | 2.13 µM and 2.09 µM | – | – | – | – | –
4 | CCOC(=O)/C=C/c1ccc([N+](=O)[O-])o1 | 11.2 µM | 24.2 µM | 2.06 µM | 4.38 µM | 2.38 µM | 6.78 µM | 21 µM | 48.8 µM | 4.6 µM | 94 µM | 2.32 µM | 4.99 µM | 1.71 µM | 4.36 µM | – | – | – | – | –
5 | COc1ccc(/C=C(\C#N)c2cc(OC)c(OC)c(OC)c2)cc1 | 0.0283 µM | 1.25 µM | 0.0209 µM | > 100 µM | 0.0244 µM | 0.0661 µM | 0.0123 µM | 1.58 µM | 0.0297 µM | > 100 µM | 21.3 µM | > 100 µM | 0.0103 µM | > 100 µM | – | – | – | – | –
6 | CCCCn1c(-c2ccccc2)cs/c1=N\NC(=O)Cn1c(C)nc2ccccc21 | – | > 100 µM | – | > 100 µM | – | 56.2 µM | – | > 100 µM | – | > 100 µM | – | > 100 µM | – | > 100 µM | > 100 µM | > 100 | – | > 100 | –
7 | Cc1c(-c2ccc(-c3ccccc3F)cc2)nc2ccc(F)cc2c1C(=O)O | 19.7 µM and 55.9 µM | 115 µM and 129 µM | 3.34 µM | 105 µM and 109 µM | – | 36.4 µM and 148 µM and 302 µM | – | 181 µM and 647 µM | 36.7 µM and 81.6 µM | 248 µM and 316 µM | 22.7 µM and 43.9 µM | 107 µM and 293 µM | 0.5 µM | 48.4 µM and 164 µM | 170 µM and 171 µM | – | – | 153 | 1.12
8 | O=S1(=O)CCC2=CC(C(F)(F)F)=CC(C(F)(F)F)=CN21 | – | 3.68 µM | – | 2.03 µM | – | 3.9 µM | – | 3.84 µM | – | 4.39 µM | – | 2.26 µM | – | 3.69 µM | 5.25 µM | 6.49 | 3.32 | 3.08 | –
9 | O=C(NCCCN1CCN(CCCNC(=O)Nc2cc(Cl)ccc2Cl)CC1)Nc1cc(Cl)ccc1Cl | – | – | – | > 100 µM | – | > 100 µM | – | – | – | 82 µM | – | 54.1 µM | – | > 100 µM | > 100 µM | > 100 | > 100 | – | –
10 | CCNC(=O)COc1ccc(Cl)c(C)c1 | – | > 100 µM | – | > 100 µM | – | > 100 µM | – | > 100 µM | – | > 100 µM | – | > 100 µM | – | > 100 µM | > 100 µM | > 100 | > 100 | > 100 | –
11 | CC(NC1CCCC[C@@H]1O)c1ccccc1 (stereo not given in full) | – | > 100 µM | – | > 100 µM | – | > 100 µM | – | – | – | > 100 µM | – | > 100 µM | – | > 100 µM | > 100 µM | > 100 | – | > 100 | –
12 | CSCc1ncc(-c2ccc(C(F)(F)F)cc2)c(NC2CCCCCC2)n1 | > 10 µM | > 10 µM | > 10 µM | > 10 µM | > 10 µM | > 10 µM | > 10 µM | > 10 µM | > 10 µM | > 10 µM | > 10 µM | > 10 µM | > 10 µM | > 10 µM | – | – | – | – | –
13 | C/C(=N\NC(=S)N1CCCC1)c1ccccn1 | 0.132 µM | 13.9 µM | 0.0353 µM | 6.86 µM | 0.01 µM | 0.229 µM | 0.0798 µM | 2.37 µM | 0.273 µM | 13 µM | < 0.0349 µM | 1.64 µM | 0.09 µM | 0.534 µM | – | – | – | – | –
14 | c1ccc(N2CCN(CCN3CCc4c([nH]c5ccccc45)C3c3cccnc3)CC2)cc1 (stereo not given) | – | > 100 µM | – | > 100 µM | – | > 100 µM | – | > 100 µM | – | 9.7 µM | – | – | – | > 100 µM | > 100 µM | > 100 | > 100 | > 100 | –
15 | C[C@]12CC[C@H](OC(=O)Nc3ccccc3)CC1=CC[C@@H]1C2CC[C@]2(C)/C(=N/OC(=O)Nc3ccccc3)CCC12 (stereo not given in full) | – | > 100 µM | – | 4.96 µM | – | > 100 µM | – | > 100 µM | – | > 100 µM | – | – | – | > 100 µM | > 100 µM | > 100 | > 100 | > 100 | –
16 | COc1cc(C2CC(c3ccc(Cl)cc3)=NN2C(C)=O)ccc1Oc1ccnc2cc(Cl)ccc12 (stereo not given) | > 100 µM | > 100 µM | > 100 µM | > 100 µM | > 100 µM | > 100 µM | 4.09 µM | > 100 µM | 1.66 µM | 7.76 µM | > 100 µM | > 100 µM | > 100 µM | > 100 µM | – | – | – | – | –
17 | COC(OC)c1cccnc1C | – | – | – | > 100 µM | – | > 100 µM | – | – | – | > 100 µM | – | > 100 µM | – | > 100 µM | > 100 µM | > 100 | > 100 | > 100 | –
18 | COc1ccc2c(CN3CCCC[C@H]3O)cc3cc4c(cc3c2c1)OCO4 | 0.337 µM | 1.48 µM | 0.518 µM | 5.66 µM | 0.351 µM | 1.35 µM | 0.542 µM | 1.47 µM | 0.5 µM | 1.86 µM | 0.218 µM | 0.61 µM | 0.247 µM | 0.712 µM | – | – | – | – | –
